Results on 8 compounds are retold here after EP0812190B1 (priority 1993, dated 1995).

Series [1] has as its target T1, MAO-B (Rattus norvegicus, UniProt P19643).
T1 sequence (P19643 1-520): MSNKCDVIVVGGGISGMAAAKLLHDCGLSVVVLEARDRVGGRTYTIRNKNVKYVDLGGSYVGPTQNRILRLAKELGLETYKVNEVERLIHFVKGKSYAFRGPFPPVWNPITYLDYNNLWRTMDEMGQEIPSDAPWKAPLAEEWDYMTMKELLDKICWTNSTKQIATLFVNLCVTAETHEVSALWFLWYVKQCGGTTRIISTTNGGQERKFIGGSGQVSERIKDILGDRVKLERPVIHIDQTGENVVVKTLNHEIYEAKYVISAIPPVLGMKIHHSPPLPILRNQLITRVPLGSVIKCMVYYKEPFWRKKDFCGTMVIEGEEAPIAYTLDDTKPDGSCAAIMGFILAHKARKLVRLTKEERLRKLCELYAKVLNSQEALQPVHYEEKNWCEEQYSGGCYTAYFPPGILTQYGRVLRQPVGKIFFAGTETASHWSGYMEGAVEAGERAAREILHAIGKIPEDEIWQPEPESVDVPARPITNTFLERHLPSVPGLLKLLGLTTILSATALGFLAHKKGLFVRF
Briefly: Rat brain MAO inhibition by propargylamines (Table IA), MAO-B. Also on record: in a rat brain preparation of MAO; from tissue; host or cells: rat brain preparation. As to conditions: ratio between epimers, MAO-B. It is filed as biochemical.

Series [2] concerns the target T2, MAO-A (Rattus norvegicus, UniProt P21396).
T2 sequence (P21396 1-526): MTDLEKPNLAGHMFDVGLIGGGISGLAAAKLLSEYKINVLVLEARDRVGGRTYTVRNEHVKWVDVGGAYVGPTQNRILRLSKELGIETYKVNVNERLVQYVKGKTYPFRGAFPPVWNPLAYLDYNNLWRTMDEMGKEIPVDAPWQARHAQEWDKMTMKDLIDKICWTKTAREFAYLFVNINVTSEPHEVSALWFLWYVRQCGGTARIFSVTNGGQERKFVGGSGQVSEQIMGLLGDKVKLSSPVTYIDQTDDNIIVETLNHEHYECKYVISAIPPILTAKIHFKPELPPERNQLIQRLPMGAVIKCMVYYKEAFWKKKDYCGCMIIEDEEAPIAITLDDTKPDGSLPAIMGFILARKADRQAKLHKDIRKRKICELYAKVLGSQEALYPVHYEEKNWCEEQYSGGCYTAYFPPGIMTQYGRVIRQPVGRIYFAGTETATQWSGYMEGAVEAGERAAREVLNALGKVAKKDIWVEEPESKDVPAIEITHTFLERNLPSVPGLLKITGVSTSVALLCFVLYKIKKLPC
Briefly: Rat brain MAO inhibition by propargylamines (Table IA), MAO-A. As to conditions: ratio between epimers. The series is classed as biochemical. Also on record: MAO activity determined in brain and liver using the general technique described above; from tissue; host or cells: brain and liver of treated rats.

Series [3] concerns maximal electroshock seizures. As to the kind of experiment: animal or person. As to conditions: for ED50: Mus musculus, ip. From the text:
(§1) The MES test is a classical model to indicate efficacy for partial and generalized seizures in humans. […] Some agents, however, that prevent seizure spread have the side effect of lowering seizure threshold. These agents therefore have both proconvulsive and anticonvulsive side effects.

Series [4] concerns maximal electroshock seizures. As to conditions: rats, p.o., 50 mg/kg.
Text: as §1

The subject of series [5] is neurological deficits. As to conditions: mice, 300 mg/kg.
Protocol: TD50 (median toxic dose). This test measures neurological deficits by the rotorod ataxia test. A mouse is placed on a knurled rod rotating at 6 rpm. It is then determined whether a mouse has the ability to maintain its equilibrium and stay on the rod for one minute in each of three trials.
Series [6] relates to minimal seizure threshold. As to conditions: 141 mg/kg. On the procedure: Timed Intravenous Infusion of Metrazol Test. This test measures the minimal seizure threshold of each animal. […] The time is then recorded (sec) from the start of infusion until the appearance of the first twitch (first focal seizure) and onset of clonus (clonic seizure).
In series [7] the test system is guinea-pig ileum. As to the kind of experiment: tissue or blood. As to conditions: Cavia porcellus, read-out: Percent relaxation.
Series [8] concerns amphetamine-induced stereotype behavior. As to conditions: control senescent rats; 0.5 mg/kg/day in drinking water; lateral head movements over 1 minute, 45 min after amphetamine 0.5 mg/kg s.c. On the procedure:
The extent of this behavior is rated in accordance with the number of lateral head movements over a period of 1 minute.
Following that, amphetamine was injected s.c. at a dose of 0.5 mg/kg. 45 minutes later, lateral head movements were counted.

The test system of series [9] is MPTP-induced striatal dopamine depletions. As to the kind of experiment: Suppression of MPTP-induced dopaminergic toxicity (striatal DA and DOPAC). The series is classed as in vivo, mice. As to conditions: striatum. How it is done: Brains were removed and corpora striata dissected on an ice-cold glass plate and frozen on dry ice. Striatal tissues were homogenized in 0.1 M perchloric acid, and deproteinized aliquots containing dihydroxybenzylamine as an internal standard were assayed for dopamine and its major metabolite 3,4-dihydroxy-phenylacetic acid (DOPAC) using HPLC with electrochemical detection.

Series [10] relates to rabbit jejunum. As to the kind of experiment: Tyramine potentiation in rabbit jejunum preparation.
For series [11], the system named is guinea-pig ileum. Briefly: tissue or blood. As to conditions: Cavia porcellus, read-out: Percent relaxation. This is another data set of the same source.
In series [12] the test system is guinea-pig ileum.
Series [13] concerns minimal seizure threshold. As to conditions: literature (Kupferberg); cited from earlier work.

Counter-ions that a name gives are not always drawn. Like-named read-outs stand apart in the source and are kept apart here.

For the compound `C#CCNC1CCCc2ccccc21` (racemic) [Example 1-PAT, N-propargyl-1-aminotetralin], the “RELATIVE POTENCY R/S B” value in [1] worked out at 0.5. Besides, the “RELATIVE POTENCY R/S A” value in series [2] came out at 4.
Broadly, the ED50 is the dose that gives a 50% effect, or the effect in half of the subjects. Low readings indicate an effect at a small dose, high ones a need for a large dose. In series [3], `C#CCN[C@@H]1CCc2ccccc21.Cl` [[R](+)PAI HCl, R-(+)-N-Propargyl-1-aminoindan hydrochloride] yielded a median effective dose (ED50) of 79 mg/kg. The “animals protected from seizures” value in series [4] is given as “three out of four”.
Taken in the same sequence, the figures for `C#CCN[C@H]1CCc2ccccc21` [[S](-)PAI HCl, S-(-)-N-Propargyl-1-aminoindan hydrochloride, reference compound] were 57 mg/kg and “Four out of four”.
Consider `C#CCN[C@H]1CCc2ccccc21` [[S](-)PAI Mesylate, reference compound], for which, in series [5], the acute neurotoxicity entry was “four out of four mice showed neurotoxicity and spasticity”. Moreover, the “time to first focal seizure and onset of clonus” value (shortened to “time”) in series [6] is recorded as “reduces the time”. In series [3] (mice, 100 mg/kg), the mice protected entry was “three out of three”.
On to `C#CCN[C@H]1CCc2ccccc21` [[S](-)PAI, S-(-)-N-propargyl-1-aminoindan, reference compound], for which the inhibition at 60 µM in series [7] fell in the range of 60 to 70%. In [7], the inhibition at 300 µM amounted to 100%. The “Stereotype Behavior Rating” value in series [8] was “totally inactive”. Also, the DOPAC came out at 7.5±0.2 ng/mg protein in series [9] (drug alone (PAI isomers […] i.p., deprenyl 5 mg/kg i.p.)) and 7.0±0.6 ng/mg protein in series [9] (pretreatment one hour before MPTP-HCl 30 mg/kg s.c., 5 days later). The DA in series [9] (drug alone (PAI isomers […] i.p., deprenyl 5 mg/kg i.p.), Mean±S.E.M.) was 174.0±4.8 ng/mg protein; in series [9] (pretreatment one hour before MPTP-HCl 30 mg/kg s.c. (PAI isomers […] i.p., deprenyl 5 mg/kg i.p.), 5 days later), 53.4±6.9 ng/mg protein. In addition, the Percent relaxation in series [10] (PAI HCl enantiomer alone 0.2-4.0 µM) is 0%; in series [10] (tyramine 40 µM after 0.2 µM PAI HCl enantiomer), 0%; in series [10] (tyramine 40 µM after 2 µM PAI HCl enantiomer) it was 35%; in series [10] (tyramine 40 µM after 40 µM PAI HCl enantiomer) it was 33-50%. Moreover, the inhibition at 2 µM in series [11] is 11%. The inhibition at 30 µM in series [11] came to 33%. Moreover, in series [11], the inhibition at 40 µM is 36%. In addition, in [11], the inhibition at 200 µM was found to be 90%. Also, in series [11], the inhibition at 400 µM was determined as 98%. Further, the inhibition at 1000 µM in series [11] came out at 100%. Besides, the gram-tension in series [12] (bethanechol 0.8 µM, 400 µM PAI HCl enantiomer) worked out at 0 gram-tension; in series [12] (bethanechol 2 µM, 400 µM enantiomer), 0 gram-tension; in [12] (bethanechol 4 µM, 400 µM enantiomer) it was 0 gram-tension; in series [12] (bethanechol 20 µM, 400 µM enantiomer) it was 1.2 gram-tension; in series [12] (bethanechol 80 µM, 400 µM enantiomer), 2.6 gram-tension; in [12] (bethanechol 200 µM, 400 µM enantiomer) it was 2.6 gram-tension.
Regarding `NC(=O)N1c2ccccc2C=Cc2ccccc21` [carbamazepine], the “time” value in series [13] was “do not show this effect”.
For the compound `O=C1NC(=O)C(c2ccccc2)(c2ccccc2)N1` [phenytoin], the “time” value in series [13] was “do not show this effect”.
With “N-Methyl-N-propargyl-1-aminotetralin [Example 2-MPAI]”, the “RELATIVE POTENCY +/- B” value in series [1] is reported as 0.2. Also, the “RELATIVE POTENCY +/- A” value in series [2] stood at 3.
